According to the supplement of paper PMC5908809:

Tests used:
[1] = test system: normal NK cells expanded with K562-aAPC; test: percent inhibition of viability; higher = more inhibition; conditions: 72 h, IL-2 2.5 ng/mL
Method: (§1)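 Drug sensitivity and resistance testing on K562-aAPC-expanded normal NK cells: 5 concentrations (10-fold steps over a 10,000-fold range), 72 h at 37 °C, viability by CellTiter-Glo normalised to DMSO and benzethonium chloride controls; DSS from the fitted curve.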

DERL-7 (IL-2 2.5 ng/mL) [2] = test: as above; conditions: 72 h
IMC-1 (IL-2 20 ng/mL) [3] = test: as above; conditions: 72 h
KAI3 (IL-2 2.5 ng/mL) [4] = test: as above; conditions: 72 h
KHYG-1 (IL-2 2.5 ng/mL) [5] = test: as above; conditions: 72 h
NK-92 (IL-2 2.5 ng/mL) [6] = test: as above; conditions: 72 h
NK-YS (IL-2 2.5 ng/mL) [7] = test: as above; conditions: 72 h
NKL (IL-2 2.5 ng/mL) [8] = test: as above; conditions: 72 h
SNK-6 (IL-2 2.5 ng/mL) [9] = test: as above; conditions: 72 h
YT (IL-2 2.5 ng/mL) [10] = test: as above; conditions: 72 h
[11] = test system: normal primary NK cells, pool 1 (3 donors) (IL-2 2.5 ng/mL); test: as above; conditions: 72 h
[12] = test system: normal primary NK cells, pool 1 (3 donors), resting (IL-2 0 ng/mL); test: as above; conditions: 72 h
[13] = test system: normal primary NK cells, pool 2 (3 donors) (IL-2 2.5 ng/mL); test: as above; conditions: 72 h
[14] = test system: normal primary NK cells, pool 3 (3 donors) (IL-2 2.5 ng/mL); test: as above; conditions: 72 h
[15] = test system: normal NK cells expanded with K562-aAPC; test: drug sensitivity score (DSS) (DSS units); higher = more sensitive; extreme values may be limits of the assay; conditions: 72 h; IL-2 2.5 ng/mL
Method: as §1

DERL-7 (IL-2 2.5 ng/mL) [16] = test: as above; conditions: 72 h
IMC-1 (IL-2 20 ng/mL) [17] = test: as above; conditions: 72 h
KAI3 (IL-2 2.5 ng/mL) [18] = test: as above; conditions: 72 h
KHYG-1 (IL-2 2.5 ng/mL) [19] = test: as above; conditions: 72 h
NK-92 (IL-2 2.5 ng/mL) [20] = test: as above; conditions: 72 h
NK-YS (IL-2 2.5 ng/mL) [21] = test: as above; conditions: 72 h
NKL (IL-2 2.5 ng/mL) [22] = test: as above; conditions: 72 h
SNK-6 (IL-2 2.5 ng/mL) [23] = test: as above; conditions: 72 h
YT (IL-2 2.5 ng/mL) [24] = test: as above; conditions: 72 h
[25] = test system: normal primary NK cells, pool 1 (3 donors) (IL-2 2.5 ng/mL); test: as above; conditions: 72 h
[26] = test system: normal primary NK cells, pool 1 (3 donors), resting (IL-2 0 ng/mL); test: as above; conditions: 72 h
[27] = test system: normal primary NK cells, pool 2 (3 donors) (IL-2 2.5 ng/mL); test: as above; conditions: 72 h
[28] = test system: normal primary NK cells, pool 3 (3 donors) (IL-2 2.5 ng/mL); test: as above; conditions: 72 h

Cc1c(NC(=O)OC[C@@H]2COCCN2)cn2ncnc(Nc3ccc4c(cnn4Cc4cccc(F)c4)c3)c12 (max concentration tested 10000 nM)
percent inhibition of viability [%]
Conditions | 1 nM | 10 nM | 100 nM | 1000 nM | 10000 nM
DERL-7 (IL-2 2.5 ng/mL) [2] | -2.53 | -0.41 | -0.2 | 2.93 | 52.5
IMC-1 (IL-2 20 ng/mL) [3] | -5.26 | -0.97 | 0.8 | 4.51 | 43.6
KAI3 (IL-2 2.5 ng/mL) [4] | 1.51 | 4.45 | 5.56 | -0.23 | 65.3
KHYG-1 (IL-2 2.5 ng/mL) [5] | 4.55 | 7.44 | 7.32 | 8.8 | 77.5
NK-92 (IL-2 2.5 ng/mL) [6] | -5.71 | -0.55 | 7.56 | 7.66 | 105
NK-YS (IL-2 2.5 ng/mL) [7] | 1.47 | 0.48 | 3.03 | 2.38 | 38.8
NKL (IL-2 2.5 ng/mL) [8] | -10.7 | 1.23 | -8.56 | 0.45 | 55.9
SNK-6 (IL-2 2.5 ng/mL) [9] | -6.28 | -7.55 | -9.76 | -27.8 | 33.1
YT (IL-2 2.5 ng/mL) [10] | 2.59 | 1.59 | 4.74 | 2.33 | 47.5
[1] | 6.16 | 1.61 | -2.01 | 5.74 | 30.1
[11] | 1.48 | -6.08 | -9.4 | -15 | 34.3
[12] | 4.93 | -4.06 | 4.13 | -12.6 | 58.4
[13] | -13 | -2.17 | -2.11 | 0.64 | 57.2
[14] | -5.86 | 2.09 | 3.41 | -2.09 | 44

Conditions | drug sensitivity score
DERL-7 (IL-2 2.5 ng/mL) [16] | 3.21
IMC-1 (IL-2 20 ng/mL) [17] | 2.97
KAI3 (IL-2 2.5 ng/mL) [18] | 3.56
KHYG-1 (IL-2 2.5 ng/mL) [19] | 5.75
NK-92 (IL-2 2.5 ng/mL) [20] | 7.04
NK-YS (IL-2 2.5 ng/mL) [21] | 2.25
NKL (IL-2 2.5 ng/mL) [22] | 3.06
SNK-6 (IL-2 2.5 ng/mL) [23] | 0.86
YT (IL-2 2.5 ng/mL) [24] | 2.8
[15] | 2.22
[25] | 1.06
[26] | 2.48
[27] | 3.16
[28] | 2.07

CNCc1ccc(-c2[nH]c3cc(F)cc4c3c2CCNC4=O)cc1 [Rucaparib] (max concentration tested 10000 nM)
percent inhibition of viability [%]
Conditions | 1 nM | 10 nM | 100 nM | 1000 nM | 10000 nM
DERL-7 (IL-2 2.5 ng/mL) [2] | -9.87 | 10 | 4.56 | 3.4 | 22.7
IMC-1 (IL-2 20 ng/mL) [3] | -6.39 | -3.67 | -0.13 | 1.12 | 30.4
KAI3 (IL-2 2.5 ng/mL) [4] | -1.49 | 2.99 | 3.22 | 18.5 | 43.5
KHYG-1 (IL-2 2.5 ng/mL) [5] | -3.58 | -2.03 | -1.44 | 4.57 | 20
NK-92 (IL-2 2.5 ng/mL) [6] | -18.8 | 8.56 | -9.2 | 6.16 | 47.7
NK-YS (IL-2 2.5 ng/mL) [7] | -2.32 | -3.72 | 1.59 | 11.2 | 75.7
NKL (IL-2 2.5 ng/mL) [8] | -15.5 | 5.49 | 23.9 | 53.6 | 87.9
SNK-6 (IL-2 2.5 ng/mL) [9] | 7.29 | -11.5 | -2.3 | 1 | 31
YT (IL-2 2.5 ng/mL) [10] | -4.68 | -5.01 | -3.45 | 2.32 | 17.4
[1] | -4.01 | -1.44 | -1.55 | 6.35 | 21.8
[11] | 4.59 | 15.4 | 12.4 | 3.34 | 18.9
[12] | 3.79 | 19.2 | 4.4 | 7.5 | -5.08
[13] | -2.83 | 5.08 | -1.77 | -1.32 | 4.05
[14] | -0.27 | 12.1 | 3.56 | -0.98 | 7.3

Conditions | drug sensitivity score
DERL-7 (IL-2 2.5 ng/mL) [16] | 1.29
IMC-1 (IL-2 20 ng/mL) [17] | 1.47
KAI3 (IL-2 2.5 ng/mL) [18] | 4.23
KHYG-1 (IL-2 2.5 ng/mL) [19] | 1.18
NK-92 (IL-2 2.5 ng/mL) [20] | 3.52
NK-YS (IL-2 2.5 ng/mL) [21] | 6.07
NKL (IL-2 2.5 ng/mL) [22] | 13.3
SNK-6 (IL-2 2.5 ng/mL) [23] | 1.5
YT (IL-2 2.5 ng/mL) [24] | 0.68
[15] | 1.54
[25] | 0
[26] | 0
[27] | 0
[28] | 0

COc1cc2ncnc(Oc3cccc(NC(=O)Nc4cc(C(C)(C)C(F)(F)F)on4)c3)c2cc1OC (max concentration tested 10000 nM)
percent inhibition of viability [%]
Conditions | 1 nM | 10 nM | 100 nM | 1000 nM | 10000 nM
DERL-7 (IL-2 2.5 ng/mL) [2] | -5.16 | 6.23 | -3 | 4.56 | -7.99
IMC-1 (IL-2 20 ng/mL) [3] | -1.62 | -0.53 | 0.44 | -4.34 | 6.15
KAI3 (IL-2 2.5 ng/mL) [4] | 0.98 | -5.32 | 2.9 | 6.52 | 22.6
KHYG-1 (IL-2 2.5 ng/mL) [5] | -4.24 | 2.96 | 2.93 | 12.8 | 22.6
NK-92 (IL-2 2.5 ng/mL) [6] | -0.01 | 2.35 | -2.76 | 14.8 | 28.1
NK-YS (IL-2 2.5 ng/mL) [7] | -5.12 | -3.89 | 6.64 | 10.2 | 22.5
NKL (IL-2 2.5 ng/mL) [8] | 4.1 | 2.39 | 15.8 | 41.7 | 42.7
SNK-6 (IL-2 2.5 ng/mL) [9] | -21 | -20.4 | -14.8 | -14.3 | -12
YT (IL-2 2.5 ng/mL) [10] | -6.09 | 0.07 | -0.35 | 27.3 | 17.8
[1] | -1.51 | -5.86 | -2.54 | 20.8 | 24.9
[11] | -8.45 | 9.57 | -3.9 | 2.93 | 0.51
[12] | -30.4 | 6.49 | -14 | -6.06 | -6.31
[13] | -11.8 | 4.36 | -8.21 | -2.04 | -8.58
[14] | -10.2 | 8.96 | -2.46 | -8.5 | -3.67

Conditions | drug sensitivity score
DERL-7 (IL-2 2.5 ng/mL) [16] | 0
IMC-1 (IL-2 20 ng/mL) [17] | 0
KAI3 (IL-2 2.5 ng/mL) [18] | 1.44
KHYG-1 (IL-2 2.5 ng/mL) [19] | 1.77
NK-92 (IL-2 2.5 ng/mL) [20] | 2.92
NK-YS (IL-2 2.5 ng/mL) [21] | 1.47
NKL (IL-2 2.5 ng/mL) [22] | 9.3
SNK-6 (IL-2 2.5 ng/mL) [23] | 0
YT (IL-2 2.5 ng/mL) [24] | 4.37
[15] | 3.18
[25] | 0
[26] | 0
[27] | 0
[28] | 0
